Test results reported in patent US20110111016A1, “NON-DNA BASE-CONTAINING POLYNUCLEOTIDE COMPOSITIONS AND THEIR USE FOR THE MODULATION OF IMMUNE RESPONSES” (priority 2009, published 2011).

Columns and labels:
human TLR3 = target: T1, human TLR3 (Homo sapiens, UniProt O15455); test: NF-κB activation (secreted alkaline phosphatase reporter) in HEK293 cells expressing human TLR3; assay type: cell-based; settings: HEK293/hTLR3 cell line; polynucleotide final concentration 10 μg/mL; 16-20 hours
T1 construct: host or cells: HEK293
T1 sequence (O15455 24-904): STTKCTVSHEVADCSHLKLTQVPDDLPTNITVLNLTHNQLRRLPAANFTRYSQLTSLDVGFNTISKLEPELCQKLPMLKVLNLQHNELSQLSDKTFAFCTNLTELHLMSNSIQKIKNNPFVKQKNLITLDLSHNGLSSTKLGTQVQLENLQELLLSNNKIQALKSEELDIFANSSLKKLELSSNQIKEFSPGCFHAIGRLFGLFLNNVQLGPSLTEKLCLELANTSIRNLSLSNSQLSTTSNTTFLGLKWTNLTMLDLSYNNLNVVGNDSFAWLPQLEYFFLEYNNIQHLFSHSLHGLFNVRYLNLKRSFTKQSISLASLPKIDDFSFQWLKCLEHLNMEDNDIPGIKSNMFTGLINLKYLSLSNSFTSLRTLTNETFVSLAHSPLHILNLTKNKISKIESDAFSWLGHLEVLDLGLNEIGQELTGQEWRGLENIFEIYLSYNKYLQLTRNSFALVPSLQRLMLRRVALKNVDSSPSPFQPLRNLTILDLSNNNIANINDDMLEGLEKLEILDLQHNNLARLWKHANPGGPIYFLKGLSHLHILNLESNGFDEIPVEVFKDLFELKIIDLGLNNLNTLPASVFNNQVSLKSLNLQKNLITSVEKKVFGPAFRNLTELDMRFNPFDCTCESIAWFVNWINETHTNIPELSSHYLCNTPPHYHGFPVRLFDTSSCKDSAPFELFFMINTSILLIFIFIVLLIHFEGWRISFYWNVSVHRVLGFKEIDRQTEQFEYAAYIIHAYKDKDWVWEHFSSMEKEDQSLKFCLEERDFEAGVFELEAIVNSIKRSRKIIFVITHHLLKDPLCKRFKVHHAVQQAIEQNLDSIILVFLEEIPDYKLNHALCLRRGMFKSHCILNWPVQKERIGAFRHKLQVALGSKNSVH
Method: Toll-like receptors (TLR) are known to interact with a number of natural and synthetic molecules that can function as immune adjuvants. Examples of these molecules are Poly (I:C) polynucleotides, lipopolysaccharide and CpG-containing polynucleotides. The interaction of non-DNA base-containing polynucleotides (SEQ ID NOs: 1-3) to interact with TLR and induce down-stream signaling was tested by assessing NF-κB activation in HEK293 cells expressing human TLR2, 3, 4, 5, 7, 8 and 9. TLR engagement was determined by measurement of secreted alkaline phosphatase, under the control of a reporter inducible by NF-κB. Appropriate positive controls were used for each TLR. The non-DNA base-containing polynucleotides were dissolved in sterile water at a concentration of 100 μg/mL, and used at a final concentration of 10 μg/mL. HEK293 cells containing the appropriate TLR and NF-κB reporting system (InvivoGen, San Diego, Calif., USA) were placed in wells of 96 well plates (25,000-50,000 cells, in a final volume of 200 μL medium designed for the detection of NF-κB induced secreted alkaline phosphatase expression), and incubated with non-DNA base-containing polynucleotides or positive controls for 16-20 hours. TLR activating activity was determined by measurement of absorbance at 650 nm wavelength using a Coulter AD340C absorbance detector. The results shown are expressed as Optical Density (OD).

human PBMC = test: Induction of cytokines from human PBMC (ELISA cytokine capture assay); assay type: cell-based; settings: PBMC of 3 healthy adults, 48 h; increase two-fold that of background control; SEQ ID NOs 1-3 100 μg/mL, CpG 2006 and MCC 1-100 μg/mL, LPS 10 μg/mL
Excerpt: A number of immune adjuvants are known to be capable of eliciting cytokines from human PBMC cells. Examples of such adjuvants are alum, lipopolysaccharide, monophosphoryl lipid A, CpG-containing polynucleotides and non-CpG-containing ODN's, as well as mycobacterial cell wall-DNA complex (MCC). […] PBMC were isolated from whole blood using standard Ficoll-Paque (GE Healthcare Life Sciences, Baie d'Urfé, QC, Canada) gradient centrifugation, and placed in tissue culture plates at a concentration of 10^6 cells/mL (total volume: 1 mL in RPMI 1640 medium containing 10% heat-inactivated FBS, both from Wisent, St-Bruno, QC, Canada) and 50 μg/mL gentamycin sulfate (Sigma-Aldrich Canada, Oakville, ON, Canada). SEQ ID NOs: 1, 2 or 3 were added to give a final concentration of 100 μg/mL, and the cells were cultivated for 48 h. Cytokines (IL-1β, IL-2, IL-6, IL-10 and IL-12p40) in the supernatant at the end of incubation were determined by ELISA using a cytokine capture assay process (Biosource, Camarillo, Calif.). SEQ ID NO: 32 CpG 2006 ODN (1-100 μg/mL, 5′-[…]-3′, […]), MCC (1-100 μg/mL) and LPS (10 μg/mL) were used as positive controls.

| Substance | TLR activation, Optical Density at 650 nm, hTLR3 (human TLR3) | Number of individuals responding, IL-1β (human PBMC) | Number of individuals responding, IL-2 (human PBMC) | Number of individuals responding, IL-6 (human PBMC) | Number of individuals responding, IL-10 (human PBMC) | Number of individuals responding, IL-12p40 (human PBMC) |
| --- | --- | --- | --- | --- | --- | --- |
| UUGTUU [SEQ ID NO: 2] | 0.056 | 0/3 | 0/3 | 1/3 | 0/3 | 3/3 |
| NebGGTGNeb (DNA NGGTGN; Nebularine at both ends, sugar and linkages not given here, further chemistry not given here) [SEQ ID NO: 1, 5′-OH, 3′-OH non-DNA base-containing polynucleotide] | 0.055 | 3/3 | 0/3 | 3/3 | 0/3 | 3/3 |
| IIGTII [SEQ ID NO: 3] | 0.057 | 0/3 | 0/3 | 3/3 | 0/3 | 0/3 |
